Experimental data taken from patent publication US20240174618A1, “SUBSTITUTED (2-HETEROARYLOXYPHENYL)SULFONATES, SALTS THEREOF AND THEIR USE AS HERBICIDAL AGENTS” (Bayer Aktiengesellschaft, priority 2021, published 2024).
Values belong to the molecule of their own block, whether it stands above or below them.

Columns and labels:
Assay type in all cases: in vivo
[1] = tested on: Matricaria inodora (MATIN); test: C. Herbicidal pre-emergence efficacy, MATIN; conditions: scored after about 3 weeks
Text: (§1) Seeds of monocotyledonous and dicotyledonous weed plants and crop plants were placed in plastic or organic planting pots and covered with soil. The compounds of the invention, formulated in the form of wettable powders (WP) or as emulsion concentrates (EC), were then applied to the surface of the covering soil as aqueous suspension or emulsion with addition of 0.5% additive at a water application rate equivalent to 600 l/ha (converted). After the treatment, the pots were placed in a greenhouse and kept under good growth conditions for the test plants. After about 3 weeks, the efficacy of the preparations was scored visually in comparison with untreated controls as percentages. For example, • 100% efficacy=plants have died, • 0% efficacy=like untreated control plants.
Tables C1a to C14b below show the effects of selected compounds of the general formula (I) according to table 1 on various harmful plants at an application rate corresponding to 320 g/ha or less, which were obtained by the experimental procedure mentioned above.

Glycine max (GLXMA) = test: D. Pre-emergence effect on useful plants, GLXMA; conditions: useful plant
Text: as §1
Tables D1a to D5b below show the effects of selected compounds of the general formula (I) according to table 1 on various useful plants at an application rate corresponding to 320 g/ha or less, which were obtained by the experimental procedure mentioned above.

Zea mays (ZEAMX) = test: D. Pre-emergence effect on useful plants, ZEAMX; conditions: useful plant
In short: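 Seeds sown in pots and covered with soil; WP or EC formulations sprayed on the soil surface as aqueous suspension/emulsion with 0.5% additive at 600 l/ha water. Plants grown in greenhouse; crop damage scored visually after about 3 weeks as % versus untreated controls (100% = dead, 0% = like control).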

Lolium rigidum (LOLRI) = test: E. Herbicidal post-emergence efficacy, LOLRI
Procedure: (§2) Seeds of monocotyledonous and dicotyledonous weeds and crop plants were placed in sandy loam in plastic or organic planting pots, covered with soil and cultivated in a greenhouse under controlled growth conditions. 2 to 3 weeks after sowing, the test plants were treated at the one-leaf stage. The compounds of the invention, formulated in the form of wettable powders (WP) or as emulsion concentrates (EC), were then sprayed onto the green parts of the plants as aqueous suspension or emulsion with addition of 0.5% additive at a water application rate of 600 l/ha (converted). After the test plants had been kept in the greenhouse under optimum growth conditions for about 3 weeks, the activity of the preparations was rated visually in comparison to untreated controls.
(§3) For example, • 100% efficacy=plants have died, • 0% action=like untreated control plants.
Tables E1a to E12b below show the effects of selected compounds of the general formula (I) according to table 1 on various harmful plants at an application rate corresponding to 320 g/ha or less, which were obtained by the experimental procedure mentioned above.

Oryza sativa (ORYSA) = test: F. Post-emergence effect on useful plants, ORYSA; conditions: useful plant
Procedure: as §2, §3
Tables F1a to F4 below show the effects of selected compounds of the general formula (I) according to table 1 on various useful plants at an application rate corresponding to 320 g/ha or less, which were obtained by the experimental procedure mentioned above.

[2] = tested on: Matricaria inodora (MATIN); test: B. Herbicidal post-emergence efficacy, MATIN
Procedure: Seeds of mono- and dicotyledonous weed plants were placed in plastic pots in sandy loam soil (doubly sown with in each case one species of mono- or dicotyledonous weed plants per pot), covered with soil and cultivated in a greenhouse under controlled growth conditions. 2 to 3 weeks after sowing, the test plants were treated at the one-leaf stage. The compounds of the invention, formulated in the form of wettable powders (WP) or as emulsion concentrates (EC), were applied onto the green parts of the plants as aqueous suspension or emulsion with addition of 0.5% additive at a water application rate of 600 liters per hectare (converted). After the test plants had been kept in the greenhouse under optimum growth conditions for about 3 weeks, the activity of the preparations was rated visually in comparison to untreated controls.
For example, • 100% efficacy=plants have died, • 0% efficacy=like untreated control plants
Tables B1a to B12c below show the effects of selected inventive compounds of the general formula (I) according to table 1 on various harmful plants at an application rate corresponding to 1280 g/ha or less, which were obtained by the experimental procedure mentioned above.

Pre-emergence efficacy against GLXMA in % (Glycine max (GLXMA); application rate 80 g/ha): 0% | Pre-emergence efficacy against GLXMA in % (Glycine max (GLXMA); application rate 320 g/ha): 0%
Compound: O=S(=O)(CCC(F)(F)F)Oc1c(Cl)cccc1Oc1ncc(Br)cn1 [Example I-32]
Pre-emergence efficacy against MATIN ([1]; 320 g/ha): 80%

Pre-emergence efficacy against ZEAMX in % (Zea mays (ZEAMX); application rate 80 g/ha): 0% | Pre-emergence efficacy against ZEAMX in % (Zea mays (ZEAMX); application rate 320 g/ha): 20%
Compound: Cc1cccc(Oc2ncc(F)cn2)c1OS(=O)(=O)CCC(F)(F)F [Example I-45]

Pre-emergence efficacy against GLXMA in % (Glycine max (GLXMA); application rate 80 g/ha): 10% | Pre-emergence efficacy against ZEAMX in % (Zea mays (ZEAMX); application rate 80 g/ha): 10%
Compound: O=S(=O)(CCC1CC1)Oc1c(F)cccc1Oc1ncc(Cl)cn1 [Example I-55]
Post-emergence efficacy against LOLRI in % (Lolium rigidum (LOLRI); application rate 320 g/ha): 80%

Pre-emergence efficacy against GLXMA in % (Glycine max (GLXMA); application rate 80 g/ha): 10% | Pre-emergence efficacy against ZEAMX in % (Zea mays (ZEAMX); application rate 80 g/ha): 10%
Compound: O=S(=O)(CCCC(F)(F)C(F)(F)F)Oc1c(F)cccc1Oc1ncc(Cl)cn1 [Example I-68]
Pre-emergence efficacy against MATIN ([1]; 80 g/ha): 90% | Pre-emergence efficacy against MATIN ([1]; 320 g/ha): 100%

Pre-emergence efficacy against ZEAMX in % (Zea mays (ZEAMX); application rate 80 g/ha): 20%
Compound: Cc1cccc(OS(=O)(=O)CCCCl)c1Oc1ncc(Cl)cn1 [Example I-12]

Pre-emergence efficacy against ZEAMX in % (Zea mays (ZEAMX); application rate 80 g/ha): 0%
Compound: O=S(=O)(CCC(F)(F)F)Oc1c(Br)cccc1Oc1ncc(F)cn1 [Example I-43]
Pre-emergence efficacy against MATIN ([1]; 320 g/ha): 80%

Post-emergence efficacy against ORYSA in % (Oryza sativa (ORYSA); application rate 80 g/ha): 20%
Compound: O=S(=O)(CCC(F)(F)F)Oc1ccccc1Oc1ncc(Cl)cn1 [Example I-8]
Pre-emergence efficacy against MATIN ([1]; 80 g/ha): 80% | Pre-emergence efficacy against MATIN ([1]; 320 g/ha): 80% | Post-emergence efficacy against LOLRI in % (Lolium rigidum (LOLRI); application rate 320 g/ha): 80%

More lines, now with the values behind:

Compound: C=CCS(=O)(=O)Oc1ccccc1Oc1ncc(Cl)cn1 [Example I-36]
Pre-emergence efficacy against GLXMA in % (Glycine max (GLXMA); application rate 80 g/ha): 0% | Pre-emergence efficacy against ZEAMX in % (Zea mays (ZEAMX); application rate 80 g/ha): 0%

Compound: O=S(=O)(CCC(F)(F)F)Oc1c(Cl)cccc1Oc1ncc(Cl)cn1 [Example I-38]
Pre-emergence efficacy against MATIN ([1]; 80 g/ha): 80% | Pre-emergence efficacy against MATIN ([1]; 320 g/ha): 80%

Compound: O=S(=O)(CCCC(F)(F)F)Oc1ccccc1Oc1ncc(Cl)cn1 [Example I-10]
Pre-emergence efficacy against MATIN ([1]; 80 g/ha): 90% | Pre-emergence efficacy against MATIN ([1]; 320 g/ha): 100% | Post-emergence efficacy against LOLRI in % (Lolium rigidum (LOLRI); application rate 320 g/ha): 90%

Compound: O=S(=O)(CCCCl)Oc1ccccc1Oc1ncc(Cl)cn1 [Example I-2]
Pre-emergence efficacy against MATIN ([1]; 320 g/ha): 100% | Post-emergence efficacy against ORYSA in % (Oryza sativa (ORYSA); application rate 80 g/ha): 0%

Compound: O=S(=O)(CCC(F)(F)F)Oc1c(F)cccc1Oc1ncc(Br)cn1 [Example I-40]
Pre-emergence efficacy against MATIN ([1]; 320 g/ha): 80%

Compound: O=S(=O)(CCCC(F)F)Oc1c(F)cccc1Oc1ncc(Cl)cn1 [Example I-56]
Post-emergence efficacy against MATIN ([2]; 320 g/ha): 90% | Post-emergence efficacy against MATIN ([2]; 1280 g/ha): 90%

Compound: O=S(=O)(CCCCl)Oc1ccccc1Oc1ncc(F)cn1 [Example I-5]
Post-emergence efficacy against MATIN ([2]; 1280 g/ha): 90% | Pre-emergence efficacy against MATIN ([1]; 320 g/ha): 90% | Post-emergence efficacy against LOLRI in % (Lolium rigidum (LOLRI); application rate 320 g/ha): 90% | Post-emergence efficacy against ORYSA in % (Oryza sativa (ORYSA); application rate 80 g/ha): 20% | Pre-emergence efficacy against ZEAMX in % (Zea mays (ZEAMX); application rate 80 g/ha): 20%

Compound: O=S(=O)(CCCCCl)Oc1ccccc1Oc1ncc(Cl)cn1 [Example I-15]
Post-emergence efficacy against ORYSA in % (Oryza sativa (ORYSA); application rate 80 g/ha): 0% | Post-emergence efficacy against ORYSA in % (Oryza sativa (ORYSA); application rate 320 g/ha): 20%

Compound: O=S(=O)(CC1CC(F)(F)C1)Oc1c(F)cccc1Oc1ncc(Cl)cn1 [Example I-53]
Pre-emergence efficacy against MATIN ([1]; 320 g/ha): 90% | Post-emergence efficacy against LOLRI in % (Lolium rigidum (LOLRI); application rate 80 g/ha): 80% | Post-emergence efficacy against LOLRI in % (Lolium rigidum (LOLRI); application rate 320 g/ha): 100%

Compound: Cc1cccc(Oc2ncc(F)cn2)c1OS(=O)(=O)CCCC(F)(F)F [Example I-46]
Pre-emergence efficacy against ZEAMX in % (Zea mays (ZEAMX); application rate 80 g/ha): 0%
